The source of these data is PubChem BioAssay AID651765 (The Scripps Research Institute Molecular Screening Center, 2012).

The source made the active and inactive calls. The rule behind the calls is not given here.

This assay concerns HTR5A counterscreen cells, luminescence, activation. As to the kind of experiment: HTR5A agonist-like luminescent signal – cell-based, luminescence, dose response, set 2, counter-screen for OPRM1-OPRD1 heterodimer activator project, late-stage follow-up (AID 651765).
One may read the EC50 as the concentration needed to bring the measured effect to its halfway point. In the case of `CC(=O)Nc1ccc(CN2CCCC(CO)(CCc3ccccc3)C2)cc1` (stereo not drawn), the EC50 is > 50 µM (inactive).
Turning to `CCOC(=O)C1(CCOC)CCN(Cc2ccc(NC(C)=O)cc2)CC1`, the EC50 is > 50 µM (inactive).
Consider `CCOC(=O)C1(CCc2ccccc2)CCN(Cc2ccncc2)CC1`, for which the EC50 was > 50 µM (inactive).
Consider `CCOC(=O)C1(Cc2cccc(OC)c2)CCCN(Cc2ccc(NC(C)=O)cc2)C1` (stereo not drawn), for which the EC50 was > 50 µM (inactive).
Under `CCOC(=O)C1CCN(CCC(=O)Nc2ccc(C)cc2)CC1` stands > 50 µM (inactive).
On to `CCOC(=O)C1(Cc2ccccc2Cl)CCN(Cc2ccc(NC(C)=O)cc2)CC1`, for which the EC50 is > 50 µM (inactive).
Take `CCOC(=O)C1(CCc2ccccc2)CCCN(Cc2ccc(N3CCNC3=O)cc2)C1` (stereo not drawn): the EC50 is > 50 µM (inactive).
As to `CCOC(=O)C1(CC2CC2)CCN(C(=O)c2ccc(N3CCCCC3)cc2)CC1`, the EC50 is > 50 µM (inactive).
For the compound `C=Cc1ccc(C(=O)N2CCC(CCc3ccccc3)(C(=O)OCC)CC2)cc1`, the EC50 was > 50 µM (inactive).
Under `CCOC(=O)C1(Cc2ccc(OC)cc2)CCN(C(=O)c2ccc(N(C)C)cc2)CC1` stands > 50 µM (inactive); under `CCOC(=O)C1(CCc2ccccc2)CCN(Cc2ccc(OC)cc2)CC1`, > 50 µM (inactive); under `CCOC(=O)C1CCCCN1Cc1ccc(NC(C)=O)cc1` (stereo not drawn), > 50 µM (inactive).
Take `CCOC(=O)C1(CCOC)CCCN(Cc2ccc(NC(C)=O)cc2)C1` (stereo not drawn): the EC50 was > 50 µM (inactive).
As to `CCOC(=O)C1(CCOc2ccccc2)CCCN(Cc2ccc(NC(C)=O)cc2)C1` (stereo not drawn), the EC50 was > 50 µM (inactive).
`CCOC(=O)C1(CCc2ccccc2)CCN(Cc2c(O)cccc2OC)CC1`: the EC50 is > 50 µM (inactive).
Consider `CCOC(=O)C1CCN(Cc2ccc(NC(C)=O)cc2)CC1`, for which the EC50 was > 50 µM (inactive).
Take `C=Cc1ccc(C(=O)N2CCC(CCCc3ccccc3)(C(=O)OCC)CC2)cc1`: the EC50 was > 50 µM (inactive).
With `CCOC(=O)C1(CCc2ccccc2)CCN(Cc2ccc(C(=O)OC)cc2)CC1`, the EC50 is > 50 µM (inactive).
Turning to `CCOC(=O)C1CCN(Cc2ccc(N(C)C)cc2)CC1`, the EC50 is > 50 µM (inactive).
With `CCOC(=O)C1(CCOC)CCN(Cc2ccc(N(C)c3ccccc3)cc2)CC1`, the EC50 was > 50 µM (inactive).
Under `CCOC(=O)C1(CC2CC2)CCN(Cc2ccc(NC(C)=O)cc2)CC1` stands > 50 µM (inactive); under `CCOC(=O)C1(Cc2ccccc2)CCCN(Cc2ccc(NC(C)=O)cc2)C1` (stereo not drawn), > 50 µM (inactive).
Turning to `CCOC(=O)C1CCN(C(=O)c2ccc(N(C)C)cc2)CC1`, the EC50 is > 50 µM (inactive).
As for `CCOC(=O)C1(CCc2ccccc2)CCN(Cc2ccc(C#CC(C)(C)O)cc2)CC1`, the EC50 was > 50 µM (inactive).
As to `CCOC(=O)C1(CCc2ccccc2)CCN(C(=O)Nc2ccc(C)cc2C)CC1`, the EC50 was > 50 µM (inactive).
Under `O=C(O)C1CCCCC1C(=O)Nc1ccc(CN2CCCCC2)cc1` (stereo not drawn) stands > 50 µM (inactive).
Regarding `CCOC(=O)C1(Cc2ccccc2C)CCCN(Cc2ccc(NC(C)=O)cc2)C1` (stereo not drawn), the EC50 is > 50 µM (inactive).
`CCOC(=O)C1(CCc2ccccc2)CCN(Cc2ccc(O)cc2)CC1`: the EC50 was > 50 µM (inactive).
